Test systems include DMS 114 small cell lung; UACC-62 melanoma; A549 NSCLC; HCC-2998 colon; EKVX NSCLC; NCI-H460 lung; LXFL 529 NSCLC; T-47D breast; HS 578T breast; DU-145 prostate.
Common to all, as to assay: NCI anticancer screen, dose series, 48 h

Several values for one entry are separate records, joined by “and”; a condition that tells them apart may be missing. Equal entries are not always repeated.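 A five-concentration, 48-hour dose response in 96-well plates underlies each endpoint, interpolated linearly between surrounding concentrations. Here, GI50 denotes the concentration required for 50% inhibition of growth. TGI denotes the concentration required for complete inhibition of growth.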 Some results are limits rather than exact numbers.

On to `COc1ccc(NC(=O)C(=O)NNC(=O)c2sc(NNC(C)=O)nc2C)c([N+](=O)[O-])c1`, for which the TGI in the experiment on DMS 114 small cell lung, in the experiment with UACC-62 melanoma, with A549 NSCLC, in the experiment with HCC-2998 colon, with EKVX NSCLC and in the experiment on NCI-H460 lung was > 100 µM in each case. The TGI in the experiment with LXFL 529 NSCLC is > 100 µM.

For `CCC(C(=O)[O-])C(=O)[O-].CCC(C(=O)[O-])C(=O)[O-].N.N.NCCCCCN.[Pt+4].[Pt+4]`, the GI50 in the experiment on UACC-62 melanoma is 38.3 µM; in the experiment with A549 NSCLC, > 100 µM; in the experiment with HCC-2998 colon it was > 100 µM; with EKVX NSCLC, > 100 µM; with NCI-H460 lung, 21.3 µM; in the experiment on LXFL 529 NSCLC, > 100 µM. The TGI with UACC-62 melanoma, in the experiment on A549 NSCLC, in the experiment on HCC-2998 colon, with EKVX NSCLC, with NCI-H460 lung and in the experiment on LXFL 529 NSCLC was > 100 µM in each case.

As to `NC(=O)c1csc(C2C=CC(CO)O2)n1` (centres undefined), the TGI in the experiment with DMS 114 small cell lung, in the experiment with UACC-62 melanoma, with A549 NSCLC, in the experiment with HCC-2998 colon, with EKVX NSCLC and with NCI-H460 lung was > 100 µM in each case. The TGI in the experiment with LXFL 529 NSCLC is > 100 µM.

`O=C1CC2CCCCC2=C1O` (centres undefined): the TGI with DMS 114 small cell lung, in the experiment with UACC-62 melanoma, with A549 NSCLC, with HCC-2998 colon, with EKVX NSCLC and in the experiment with NCI-H460 lung was > 100 µM each time. For the same molecule, the TGI in the experiment with LXFL 529 NSCLC was > 100 µM.

Turning to `Cc1ccc(NC(=O)CC(=O)n2nc(-c3ccccc3)c(N=Nc3ccc(Cl)cc3)c2-c2ccccc2)cc1`, the TGI was > 100 µM in the experiment with DMS 114 small cell lung; > 100 µM in the experiment with UACC-62 melanoma; 64.4 µM in the experiment with A549 NSCLC; > 100 µM in the experiment with HCC-2998 colon; > 100 µM in the experiment with EKVX NSCLC; > 100 µM in the experiment on NCI-H460 lung. The TGI in the experiment with LXFL 529 NSCLC is > 100 µM.

Regarding `C/C(=N\NC(=O)CC(=O)Nc1ccc(Cl)cc1)c1cc2ccccc2oc1=O`, the TGI with DMS 114 small cell lung, in the experiment on UACC-62 melanoma, with A549 NSCLC, with EKVX NSCLC and in the experiment with NCI-H460 lung was > 100 µM in each case.

As to `Cc1ccc(NS(=O)(=O)c2cc(C(C)(C)C)ccc2OCCOCCOCCOc2ccc(C(C)(C)C)cc2S(=O)(=O)Nc2ccc(C)cc2)cc1`, the TGI in the experiment on DMS 114 small cell lung, in the experiment on UACC-62 melanoma, in the experiment on A549 NSCLC, in the experiment with HCC-2998 colon, with EKVX NSCLC and in the experiment with NCI-H460 lung was > 100 µM each time.

As for `O=C(CC/C(C/C(=N/O)c1ccc(F)cc1)=N/O)N(Cc1ccccc1)Cc1ccccc1`, the TGI with DMS 114 small cell lung, in the experiment on UACC-62 melanoma, in the experiment with A549 NSCLC, with HCC-2998 colon, in the experiment on EKVX NSCLC and in the experiment with NCI-H460 lung was > 100 µM each time. Moreover, the TGI in the experiment on LXFL 529 NSCLC is > 100 µM.

Regarding `Cc1ccc(S(=O)(=O)CNC(=S)CCCC(=S)NCS(=O)(=O)c2ccc(C)cc2)cc1`, the TGI in the experiment on UACC-62 melanoma, with A549 NSCLC, with HCC-2998 colon, in the experiment on EKVX NSCLC, in the experiment with NCI-H460 lung and with LXFL 529 NSCLC was > 100 µM each time.

In the case of `Cc1ccc(S(=O)(=O)N2CCC3(C(/C=C/c4ccccc4)=Nc4ccccc43)C2c2ccccc2)cc1` (centres undefined), the TGI in the experiment with DMS 114 small cell lung, with UACC-62 melanoma, in the experiment with A549 NSCLC, with HCC-2998 colon, in the experiment with EKVX NSCLC and in the experiment on NCI-H460 lung was > 100 µM each time. The TGI in the experiment on LXFL 529 NSCLC was > 100 µM.

As to `CC1=C(C(=O)Nc2ccccc2C)C(c2ccc([N+](=O)[O-])cc2)C(C(=O)Nc2ccccc2C)=C(C)N1`, the TGI in the experiment with DMS 114 small cell lung, with UACC-62 melanoma, with A549 NSCLC, in the experiment on HCC-2998 colon, in the experiment with EKVX NSCLC and in the experiment with NCI-H460 lung was > 100 µM in each case. Moreover, the TGI with LXFL 529 NSCLC was > 100 µM.

For the molecule `CC(=O)OCC1OC(OC2CC3C(C)(C)C(OC(C)=O)CC[C@]3(C)C3CCC45CC4(CC[C@H]5C(C)CC(O)C4OC4(C)C)[C@]23C)C(O)C(O)C1O` (some centres undefined), the TGI in the experiment with DMS 114 small cell lung is 5.46 µM and 4.32 µM; in the experiment with A549 NSCLC, 8.37 µM and 15.2 µM; in the experiment on HCC-2998 colon, 2.71 µM and 4.26 µM; in the experiment with EKVX NSCLC, > 60 µM and 11.7 µM; in the experiment with NCI-H460 lung, 5.75 µM and 9.38 µM; in the experiment with LXFL 529 NSCLC it was 10.6 µM and 15.2 µM. Also, the GI50 in the experiment with UACC-62 melanoma is > 60 µM; in the experiment on A549 NSCLC, 4.26 µM; in the experiment with HCC-2998 colon it was 2.68 µM; in the experiment on EKVX NSCLC it was > 60 µM; in the experiment on NCI-H460 lung it was 3.21 µM; with LXFL 529 NSCLC it was 3.74 µM.

`CCCCCCCCCCCCCC/C(C(=O)OC)=C(/O)C(=O)OCC`: the TGI with DMS 114 small cell lung is > 100 µM; with UACC-62 melanoma, 65.1 µM; in the experiment on A549 NSCLC, 64.9 µM; in the experiment on HCC-2998 colon, 37.3 µM; in the experiment with EKVX NSCLC, > 100 µM; with NCI-H460 lung, > 100 µM. In the experiment on LXFL 529 NSCLC, the TGI was > 100 µM.

Regarding `CN(C)c1ccc(/C=C2\CNC/C(=C\c3ccc(N(C)C)cc3)C2=O)cc1`, the TGI with DMS 114 small cell lung is 34.7 µM; with UACC-62 melanoma, > 100 µM; with A549 NSCLC, 56.5 µM; in the experiment with HCC-2998 colon, > 100 µM; in the experiment on EKVX NSCLC, > 100 µM; in the experiment with NCI-H460 lung, 29.4 µM. Also, the TGI in the experiment with LXFL 529 NSCLC turned out to be 98.2 µM.

Consider `Cc1c(O)c(=O)ccn1C1OC(CO)C(O)C1O` (centres undefined), for which the TGI in the experiment on UACC-62 melanoma, in the experiment on A549 NSCLC, with EKVX NSCLC, in the experiment with NCI-H460 lung and in the experiment on LXFL 529 NSCLC was > 100 µM in each case.

In the case of `NC(=O)c1[nH]nc(C2OC(CO)C(O)C2O)c1O` (centres undefined), the TGI is 858 µM in the experiment on DMS 114 small cell lung; > 2990 µM in the experiment on T-47D breast; 1620 µM in the experiment with HS 578T breast; 579 µM with UACC-62 melanoma; 289 µM in the experiment on A549 NSCLC; 378 µM with HCC-2998 colon. Moreover, the TGI in the experiment with EKVX NSCLC was 1960 µM; in the experiment on NCI-H460 lung it was 415 µM; with DU-145 prostate, > 5000 µM.

As to `CC(=O)NNc1nc(C)c(C(/C=C/c2ccc(Cl)cc2)=N\NS(=O)(=O)c2ccc(C)cc2)s1`, the TGI in the experiment with UACC-62 melanoma, in the experiment with A549 NSCLC, with HCC-2998 colon, with EKVX NSCLC, in the experiment on NCI-H460 lung and in the experiment on LXFL 529 NSCLC was > 100 µM in each case.

The values above are taken from PubChem BioAssay (NCI).
